Experimental data from ChEMBL document CHEMBL5321215, “Discovery of quinazolin-4(3H)-one derivatives as novel AChE inhibitors with anti-inflammatory activities” (Eur J Med Chem, 2023).
Calls of active or inactive are those of the source. No cut-off for these calls is given here.

Experiments:
[1] = target: Cholinesterase (Equus caballus) (UniProt P81908); assay: Inhibition of equine serum BChE at 20 uM by Ellman's method relative to control; assay type: cell-free
[2] = target: Acetylcholinesterase (Electrophorus electricus) (UniProt O42275); assay: Inhibition of electric eel AChE using acetylthiocholine iodide as substrate at 20 uM incubated for 20 mins by Ellman's method relative to control
Cholinesterase [3] = target: T1, Cholinesterase (Equus caballus, UniProt P81908); assay: Inhibition of equine serum BChE by Ellman's method; assay type: cell-free
Acetylcholinesterase [4] = target: Acetylcholinesterase (Electrophorus electricus, UniProt O42275); assay: Inhibition of electric eel AChE using acetylthiocholine iodide as substrate incubated for 20 mins by Ellman's method
RAW264.7 [5] = assay: Antiinflammatory activity against mouse RAW264.7 cells assessed as inhibition of LPS-induced nitric oxide production at 20 uM preincubated for 24 hrs followed by LPS stimulation by Griess reagent-based colorimetric assay relative to control; assay type: functional; set-up: scale not given: the % may be the effect or the level left
[6] = target: Cholinesterase (Equus caballus) (UniProt P81908); assay: Non competitive inhibition of equine serum BChE assessed as decrease in Vmax with constant Km by Lineweaver-Burk plot analysis; assay type: cell-free
[7] = target: Acetylcholinesterase (Electrophorus electricus) (UniProt O42275); assay: Non competitive inhibition of Electric eel AChE using acetylthiocholine iodide as substrate assessed as decrease in Vmax with constant Km by Lineweaver-Burk plot analysis
BV-2 [8] = assay: Cytotoxicity against mouse BV-2 cells assessed as reduction in cell viability at 10 uM incubated for 24 hrs by CCK-8 assay; assay type: toxicity, cell-based; conditions: bv-2, 24 h
[9] = target: NACHT, LRR and PYD domains-containing protein 3 (Mus musculus) (UniProt Q8R4B8); assay: Inhibition of NLRP3 inflammasome in LPS-induced mouse BV-2 cells assessed as decrease in NLRP3 protein expression at 10 uM incubated for 24 hrs by Western blot analysis; assay type: cell-based
BV-2 [10] = assay: Inhibition of NF-kappaB pathway in LPS-induced mouse BV-2 cells assessed as reduction in phosphorylated p65 protein expression level at 10 uM incubated for 24 hrs by Western blot analysis; assay type: cell-based
BV-2 [11] = assay: Antiinflammatory activity against mouse BV-2 cells assessed as reduction in LPS-induced IL-6 mRNA expression level measured after 24 hrs by qRT-PCR analysis; assay type: functional, cell-based; conditions: dose 1.25-10 µM
BV-2 [12] = assay: Antiinflammatory activity against mouse BV-2 cells assessed as reduction in LPS-induced TNF-alpha mRNA expression measured after 24 hrs by qRT-PCR analysis; assay type: functional, cell-based; conditions: dose 1.25-10 µM
BV-2 [13] = assay: Inhibition of MAPK/JNK signalling pathway in LPS-induced mouse BV-2 cells assessed as reduction in JNK phosphorylation level at 10 uM incubated for 24 hrs by Western blot analysis; assay type: cell-based
BV-2 [14] = assay: Inhibition of NF-kappaB pathway in LPS-induced mouse BV-2 cells assessed as reduction in p65 protein expression level at 10 uM incubated for 24 hrs by Western blot analysis; assay type: cell-based
BV-2 [15] = assay: Antiinflammatory activity against mouse BV-2 cells assessed as reduction in LPS-induced CCL2 mRNA expression measured after 24 hrs by qRT-PCR analysis; assay type: functional, cell-based; conditions: dose 1.25-10 µM
RAW264.7 [16] = assay: Antiinflammatory activity against mouse RAW264.7 cells assessed as inhibition of LPS-induced nitric oxide production preincubated for 24 hrs followed by LPS stimulation by Griess reagent-based colorimetric assay; assay type: functional, cell-based
BV-2 [17] = assay: Effect on JNK protein level in LPS-induced mouse BV-2 cells at 10 uM incubated for 24 hrs by Western blot analysis; assay type: functional, cell-based
BV-2 [18] = assay: Antiinflammatory activity against mouse BV-2 cells assessed as reduction in LPS-induced IL-1beta mRNA expression measured after 24 hrs by qRT-PCR analysis; assay type: functional, cell-based; conditions: dose 1.25-10 µM
Cholinesterase [19] = target: Cholinesterase (Homo sapiens, UniProt P06276); assay: Inhibition of BChE (unknown origin)
Acetylcholinesterase [20] = target: Acetylcholinesterase (Homo sapiens, UniProt P22303); assay: Inhibition of AChE (unknown origin)
[21] = target: Cholinesterase (Equus caballus) (UniProt P81908); assay: Mixed type inhibition of equine serum BChE assessed as increase in slope and Y-intercept at increasing concentration by Lineweaver-Burk plot analysis; assay type: cell-free
[22] = target: Cholinesterase (Equus caballus) (UniProt P81908); assay: Mixed type inhibition of equine serum BChE assessed as Kis by Lineweaver-Burk plot analysis; assay type: cell-free
Cholinesterase [23] = target: T1, Cholinesterase; assay: Mixed type inhibition of equine serum BChE assessed as inhibition constant by Lineweaver-Burk plot analysis; assay type: cell-free

Acetylcholinesterase (Electrophorus electricus, UniProt O42275), sequence (O42275 whole entry): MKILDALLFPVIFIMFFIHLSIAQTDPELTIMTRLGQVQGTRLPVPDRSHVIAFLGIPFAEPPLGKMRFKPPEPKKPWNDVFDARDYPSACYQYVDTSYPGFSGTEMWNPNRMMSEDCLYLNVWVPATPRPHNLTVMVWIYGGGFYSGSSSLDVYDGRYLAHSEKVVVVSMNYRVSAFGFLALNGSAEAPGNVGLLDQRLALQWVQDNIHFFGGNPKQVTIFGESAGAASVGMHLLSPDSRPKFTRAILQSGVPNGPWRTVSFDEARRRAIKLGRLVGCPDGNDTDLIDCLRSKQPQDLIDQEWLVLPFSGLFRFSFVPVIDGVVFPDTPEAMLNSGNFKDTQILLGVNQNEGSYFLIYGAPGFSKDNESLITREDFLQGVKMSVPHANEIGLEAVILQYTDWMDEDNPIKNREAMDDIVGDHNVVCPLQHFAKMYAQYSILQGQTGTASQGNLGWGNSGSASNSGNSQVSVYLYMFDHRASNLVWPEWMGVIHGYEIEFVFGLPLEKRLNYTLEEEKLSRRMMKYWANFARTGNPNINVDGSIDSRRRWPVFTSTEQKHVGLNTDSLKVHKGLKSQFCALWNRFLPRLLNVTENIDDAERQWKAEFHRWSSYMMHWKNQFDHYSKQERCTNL
T1 sequence (P81908 whole entry): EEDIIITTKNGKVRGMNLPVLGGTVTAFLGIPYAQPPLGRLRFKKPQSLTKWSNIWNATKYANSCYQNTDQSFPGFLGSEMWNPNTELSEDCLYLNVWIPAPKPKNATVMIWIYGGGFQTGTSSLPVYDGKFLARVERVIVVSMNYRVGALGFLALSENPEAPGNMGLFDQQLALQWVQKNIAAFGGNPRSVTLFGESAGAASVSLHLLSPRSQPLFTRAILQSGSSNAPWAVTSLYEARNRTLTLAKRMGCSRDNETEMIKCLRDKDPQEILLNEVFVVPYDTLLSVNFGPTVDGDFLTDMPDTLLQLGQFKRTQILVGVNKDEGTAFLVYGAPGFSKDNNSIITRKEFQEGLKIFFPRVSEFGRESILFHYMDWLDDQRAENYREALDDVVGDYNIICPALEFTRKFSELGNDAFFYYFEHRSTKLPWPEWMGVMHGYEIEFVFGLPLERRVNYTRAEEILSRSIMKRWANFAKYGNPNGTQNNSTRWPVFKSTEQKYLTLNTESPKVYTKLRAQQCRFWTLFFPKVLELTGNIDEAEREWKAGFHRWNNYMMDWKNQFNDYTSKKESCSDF
Cholinesterase (Equus caballus), sequence (P81908 whole entry): as above
Acetylcholinesterase (Electrophorus electricus), sequence (O42275 24-633 limits assumed): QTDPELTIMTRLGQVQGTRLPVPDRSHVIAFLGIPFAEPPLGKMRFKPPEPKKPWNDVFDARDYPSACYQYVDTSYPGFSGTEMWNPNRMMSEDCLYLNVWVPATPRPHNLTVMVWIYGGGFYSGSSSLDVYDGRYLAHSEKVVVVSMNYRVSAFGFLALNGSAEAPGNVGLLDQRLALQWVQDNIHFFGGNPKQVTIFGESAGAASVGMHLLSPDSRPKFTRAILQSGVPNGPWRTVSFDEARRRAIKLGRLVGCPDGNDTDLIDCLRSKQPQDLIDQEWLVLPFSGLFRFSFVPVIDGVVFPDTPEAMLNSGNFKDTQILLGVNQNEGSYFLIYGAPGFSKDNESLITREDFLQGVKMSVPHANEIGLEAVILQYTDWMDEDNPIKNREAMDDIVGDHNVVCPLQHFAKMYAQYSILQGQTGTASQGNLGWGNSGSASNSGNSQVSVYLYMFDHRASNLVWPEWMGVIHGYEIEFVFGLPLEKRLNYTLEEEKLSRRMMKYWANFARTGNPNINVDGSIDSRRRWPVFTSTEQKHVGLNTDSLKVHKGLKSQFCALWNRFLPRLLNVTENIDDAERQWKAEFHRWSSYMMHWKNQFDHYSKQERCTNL
Cholinesterase (Homo sapiens, UniProt P06276), sequence (P06276 whole entry): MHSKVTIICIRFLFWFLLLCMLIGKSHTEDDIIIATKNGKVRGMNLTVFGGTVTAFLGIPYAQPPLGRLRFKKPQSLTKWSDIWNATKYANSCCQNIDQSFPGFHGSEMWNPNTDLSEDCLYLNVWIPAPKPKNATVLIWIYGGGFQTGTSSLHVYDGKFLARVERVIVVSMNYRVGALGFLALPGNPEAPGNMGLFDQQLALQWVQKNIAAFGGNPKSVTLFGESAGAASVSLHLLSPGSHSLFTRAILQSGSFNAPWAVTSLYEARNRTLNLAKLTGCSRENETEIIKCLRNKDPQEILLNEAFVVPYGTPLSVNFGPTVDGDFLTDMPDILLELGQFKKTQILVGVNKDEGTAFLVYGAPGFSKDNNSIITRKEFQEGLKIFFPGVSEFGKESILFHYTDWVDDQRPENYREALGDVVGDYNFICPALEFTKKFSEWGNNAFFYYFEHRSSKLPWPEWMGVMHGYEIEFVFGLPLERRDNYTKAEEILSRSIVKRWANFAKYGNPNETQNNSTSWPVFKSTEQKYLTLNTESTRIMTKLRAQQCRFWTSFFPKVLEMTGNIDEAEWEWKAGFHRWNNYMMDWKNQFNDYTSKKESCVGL
NACHT, LRR and PYD domains-containing protein 3 (Mus musculus), sequence (Q8R4B8 whole entry, the tested form may be a part): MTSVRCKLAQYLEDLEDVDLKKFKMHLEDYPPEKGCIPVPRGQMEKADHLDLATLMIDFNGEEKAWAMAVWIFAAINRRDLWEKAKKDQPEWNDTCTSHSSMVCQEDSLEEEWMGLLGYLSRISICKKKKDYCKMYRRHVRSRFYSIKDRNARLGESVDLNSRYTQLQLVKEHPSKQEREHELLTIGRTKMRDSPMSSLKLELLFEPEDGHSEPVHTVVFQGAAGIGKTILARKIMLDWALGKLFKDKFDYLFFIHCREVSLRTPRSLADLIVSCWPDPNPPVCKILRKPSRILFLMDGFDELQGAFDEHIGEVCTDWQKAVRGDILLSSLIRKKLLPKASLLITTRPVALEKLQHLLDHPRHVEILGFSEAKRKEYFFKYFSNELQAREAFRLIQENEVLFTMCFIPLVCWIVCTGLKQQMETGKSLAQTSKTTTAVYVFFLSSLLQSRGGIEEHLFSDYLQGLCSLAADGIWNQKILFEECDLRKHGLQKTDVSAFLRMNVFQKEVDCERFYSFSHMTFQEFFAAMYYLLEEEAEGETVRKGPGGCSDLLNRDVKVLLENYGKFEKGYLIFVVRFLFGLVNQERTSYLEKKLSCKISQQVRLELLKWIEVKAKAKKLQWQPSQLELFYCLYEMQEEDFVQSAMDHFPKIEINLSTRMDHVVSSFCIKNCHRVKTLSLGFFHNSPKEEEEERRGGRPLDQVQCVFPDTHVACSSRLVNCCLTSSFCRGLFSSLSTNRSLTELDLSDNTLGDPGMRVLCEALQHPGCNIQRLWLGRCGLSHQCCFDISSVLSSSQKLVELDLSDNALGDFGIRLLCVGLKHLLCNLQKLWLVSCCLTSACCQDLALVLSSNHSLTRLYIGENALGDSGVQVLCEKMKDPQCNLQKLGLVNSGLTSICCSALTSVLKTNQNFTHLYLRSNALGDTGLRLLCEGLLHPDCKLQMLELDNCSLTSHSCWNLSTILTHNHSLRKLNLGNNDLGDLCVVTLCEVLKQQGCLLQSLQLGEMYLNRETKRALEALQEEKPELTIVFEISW
Acetylcholinesterase (Homo sapiens, UniProt P22303), sequence (P22303 whole entry): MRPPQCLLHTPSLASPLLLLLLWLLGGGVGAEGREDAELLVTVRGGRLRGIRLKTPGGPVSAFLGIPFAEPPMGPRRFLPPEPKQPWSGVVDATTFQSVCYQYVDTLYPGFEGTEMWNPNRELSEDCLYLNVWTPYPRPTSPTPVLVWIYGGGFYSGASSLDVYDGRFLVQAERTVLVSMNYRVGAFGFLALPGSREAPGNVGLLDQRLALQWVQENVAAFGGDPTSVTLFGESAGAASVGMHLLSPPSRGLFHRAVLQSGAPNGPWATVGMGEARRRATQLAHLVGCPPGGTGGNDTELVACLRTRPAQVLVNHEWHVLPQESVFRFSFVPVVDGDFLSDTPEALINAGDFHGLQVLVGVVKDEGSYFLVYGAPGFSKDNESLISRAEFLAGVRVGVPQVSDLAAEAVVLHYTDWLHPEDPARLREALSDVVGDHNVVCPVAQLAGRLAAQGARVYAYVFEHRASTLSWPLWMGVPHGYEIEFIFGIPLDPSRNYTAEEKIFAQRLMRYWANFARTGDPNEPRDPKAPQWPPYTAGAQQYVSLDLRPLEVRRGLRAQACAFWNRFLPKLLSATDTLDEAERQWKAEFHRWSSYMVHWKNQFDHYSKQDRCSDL

## COc1cc(OC)c2c(=O)[nH]c(-c3ccc(N4CCN(CCO)CC4)cc3)nc2c1
[1]
  inhibition: 3.32%
[2]
  inhibition: 62.4%

## COc1cc(OC)c2c(=O)[nH]c(-c3cccs3)nc2c1
[1]
  inhibition: 35.3%
[2]
  inhibition: 44.2%

## CN1CCN(c2ccc(-c3nc4ccccc4c(=O)[nH]3)cc2)CC1
Cholinesterase [3]
  IC50: > 20 µM
[1]
  inhibition: 24.1%
[2]
  inhibition: 68.1%
Acetylcholinesterase [4]
  IC50: 30.4 µM
RAW264.7 [5]
  Activity: 45.6%

## COc1cc(OC)c2c(=O)[nH]c(C(=O)c3ccc(O)cc3)nc2c1
[1]
  inhibition: inactive
[2]
  inhibition: 7.74%

## CN1CCN(c2ccc(-c3nc4ccc([N+](=O)[O-])cc4c(=O)[nH]3)cc2)CC1
Cholinesterase [3]
  IC50: > 100 µM
[1]
  inhibition: 63.7%
[2]
  inhibition: 69.4%
Acetylcholinesterase [4]
  IC50: 5.49 µM
RAW264.7 [5]
  Activity: 27.1%

## COc1cc(OC)c2c(=O)[nH]c(-c3ccc(N4CCNCC4)cc3)nc2c1
[1]
  inhibition: inactive
[2]
  inhibition: 44.2%

## COc1cc(-c2nc3ccc(NCC4CCN(Cc5ccccc5)CC4)cc3c(=O)[nH]2)cc(OC)c1OC
Cholinesterase [3]
  IC50: 11.2 µM
[6]
  inhibition: Active
[1]
  inhibition: 68.6%
[2]
  inhibition: 69%
[7]
  inhibition: Active
Acetylcholinesterase [4]
  IC50: 4.31 µM
RAW264.7 [5]
  Activity: 94%
BV-2 [8]
  Activity: Toxic

## COc1cc(OC)c2c(=O)[nH]c(C(=O)c3cc(OC)c(OC)c(OC)c3)nc2c1
[1]
  inhibition: inactive
[2]
  inhibition: 23.1%

## COc1cc(-c2nc3ccc(NC(=O)c4ccc(Br)cc4)cc3c(=O)[nH]2)cc(OC)c1OC
[1]
  inhibition: 8.3%
[2]
  inhibition: 23.5%

## COc1cc(OC)c2c(=O)[nH]c(-c3ccc(O[C@@H]4O[C@H](CO)[C@@H](O)[C@@H](O)[C@H]4O)cc3)nc2c1
[1]
  inhibition: 11.3%
[2]
  inhibition: 32.8%

## COc1cc(-c2nc3ccc(Br)cc3c(=O)[nH]2)cc(OC)c1OC
[1]
  inhibition: 12.4%
[2]
  inhibition: 33.8%

## COc1cc(-c2nc3ccc(NCc4ccc(N5CCN(C)CC5)cc4)cc3c(=O)[nH]2)cc(OC)c1OC
[1]
  inhibition: inactive
[2]
  inhibition: 23.6%

## COc1cc(-c2nc3ccc(NC(=O)CCN4CCN(C)CC4)cc3c(=O)[nH]2)cc(OC)c1OC
[1]
  inhibition: inactive
[2]
  inhibition: 24.7%

## COc1cc(OC)c2c(=O)[nH]c(-c3ccc(-c4ccncc4)cc3)nc2c1
[1]
  inhibition: 1.72%
[2]
  inhibition: 30.9%

## COc1cc(-c2nc3ccc(NC(=O)CCN4CCC(O)CC4)cc3c(=O)[nH]2)cc(OC)c1OC
[1]
  inhibition: 15.8%
[2]
  inhibition: 20.2%

## COc1cc(OC)c2c(=O)[nH]c(-c3ccc(N4CCN(C)CC4)cc3)nc2c1
[9]
  inhibition: Active
BV-2 [10]
  inhibition: Active
Cholinesterase [3]
  IC50: > 20 µM
[1]
  inhibition: 38.7%
BV-2 [11]
  Activity: Dose-Dependent Effect
BV-2 [12]
  Activity: Dose-Dependent Effect
BV-2 [13]
  inhibition: Active
BV-2 [14]
  inhibition: Active
[2]
  inhibition: 91.8%
[7]
  inhibition: Active
BV-2 [15]
  Activity: Dose-Dependent Effect
RAW264.7 [16]
  IC50: 3.29 µM
BV-2 [17]
  Activity: Active
BV-2 [18]
  Activity: Dose-Dependent Effect
Acetylcholinesterase [4]
  IC50: 5.04 µM
RAW264.7 [5]
  Activity: 116.4%
BV-2 [8]
  Activity: Non-Toxic

## COc1cc(-c2nc3ccc(NC(=O)CCN4CCCCC4)cc3c(=O)[nH]2)cc(OC)c1OC
[1]
  inhibition: 14.6%
[2]
  inhibition: 26.1%

## CN1CCN(c2ccc(-c3nc4ccc(Br)cc4c(=O)[nH]3)cc2)CC1
Cholinesterase [3]
  IC50: > 20 µM
[1]
  inhibition: 31.2%
[2]
  inhibition: 60.8%
Acetylcholinesterase [4]
  IC50: 16.1 µM
RAW264.7 [5]
  Activity: 42.7%

## COc1cc(OC)c2c(=O)[nH]c(-c3ccc(N4CCOCC4)cc3)nc2c1
[1]
  inhibition: 16.5%
[2]
  inhibition: 47.3%

## COc1cc(OC)c2c(=O)[nH]c(-c3c[nH]c4ccccc34)nc2c1
[1]
  inhibition: 8.91%
[2]
  inhibition: 31.9%

## C[C@@H]1C[C@H]2[C@@H]3CCC4=CC(=O)C=C[C@]4(C)[C@@]3(F)[C@@H](O)C[C@]2(C)[C@@]1(O)C(=O)CO [DEXAMETHASONE]
RAW264.7 [16]
  IC50: 11.5 µM
RAW264.7 [5]
  Activity: 60.3%

## COc1cc(-c2nc3ccc(NC(=O)c4ccc(F)cc4)cc3c(=O)[nH]2)cc(OC)c1OC
[1]
  inhibition: 12.7%
[2]
  inhibition: 6.3%

## COc1cc(-c2nc3ccc(NC(=O)c4ccc(Cl)cc4)cc3c(=O)[nH]2)cc(OC)c1OC
[1]
  inhibition: 14.9%
[2]
  inhibition: 10.6%

## O=c1[nH]c(C2CCN(Cc3ccccc3)CC2)nc2ccc(Br)cc12
[1]
  inhibition: 14.6%
[2]
  inhibition: 31.7%

## COc1cc(-c2nc3ccc(NC(=O)CN4CCCCC4)cc3c(=O)[nH]2)cc(OC)c1OC
[1]
  inhibition: inactive
[2]
  inhibition: 24.6%

## COc1cc(-c2nc3ccccc3c(=O)[nH]2)cc(OC)c1OC
[1]
  inhibition: 32.9%
[2]
  inhibition: 47.9%

## COc1cc(OC)c2c(=O)[nH]c(-c3ccc(N4CCN(C(=O)OC(C)(C)C)CC4)cc3)nc2c1
[1]
  inhibition: inactive
[2]
  inhibition: 37.4%

## CON(C)C(=O)Oc1ccccc1C(=O)NCCc1c[nH]c2ccccc12
Cholinesterase [19]
  IC50: 1.84 µM
Acetylcholinesterase [20]
  IC50: 3.24 µM

## COc1cc(OC)c2c(=O)[nH]c(C3CCN(Cc4ccccc4)CC3)nc2c1
Cholinesterase [3]
  IC50: 36.9 µM
[1]
  inhibition: 59.1%
[2]
  inhibition: 83.4%
RAW264.7 [16]
  IC50: 21.3 µM
Acetylcholinesterase [4]
  IC50: 7.88 µM
RAW264.7 [5]
  Activity: 60.5%

## COc1cc(OC)c2c(=O)[nH]c(-c3nc[nH]c3C)nc2c1
Cholinesterase [3]
  IC50: > 20 µM
[1]
  inhibition: 25.9%
[2]
  inhibition: 60.8%
Acetylcholinesterase [4]
  IC50: 28.1 µM
RAW264.7 [5]
  Activity: 61.2%

## COc1cc(-c2nc3ccc([N+](=O)[O-])cc3c(=O)[nH]2)cc(OC)c1OC
[1]
  inhibition: inactive
[2]
  inhibition: 2.52%

## CN1CCN(c2ccc(-c3nc4ccc(N)cc4c(=O)[nH]3)cc2)CC1
[1]
  inhibition: 3.32%
[2]
  inhibition: 58.6%

## COc1cc(-c2nc3ccc(NC(=O)CCl)cc3c(=O)[nH]2)cc(OC)c1OC
[1]
  inhibition: 9.51%
[2]
  inhibition: 32.5%

## O=c1[nH]c(C2CCN(Cc3ccccc3)CC2)nc2ccccc12
[1]
  inhibition: 48.6%
[2]
  inhibition: 63.3%

## O=c1[nH]c(C2CCN(Cc3ccccc3)CC2)nc2ccc([N+](=O)[O-])cc12
Cholinesterase [3]
  IC50: > 20 µM
[1]
  inhibition: inactive
[2]
  inhibition: 59.6%
Acetylcholinesterase [4]
  IC50: 6.86 µM
RAW264.7 [5]
  Activity: 40.4%

## COc1cc(OC)c2c(=O)[nH]c(-c3c[nH]cn3)nc2c1
[1]
  inhibition: 13.1%
[2]
  inhibition: 40.4%

## COc1cc(OC)c2c(=O)[nH]c(-c3cn(Cc4ccccc4)cn3)nc2c1
Cholinesterase [3]
  IC50: 0.83 µM
[1]
  inhibition: 95%
[21]
  inhibition: Active
[2]
  inhibition: 87.9%
[22]
  Kis: 8.58 µM
Acetylcholinesterase [4]
  IC50: 7.01 µM
Cholinesterase [23]
  Ki: 0.74 µM
RAW264.7 [5]
  Activity: 33.4%
BV-2 [8]
  Activity: Toxic

## CCN(CC)c1ccc(-c2nc3cc(OC)cc(OC)c3c(=O)[nH]2)cc1
[1]
  inhibition: inactive
[2]
  inhibition: 23.7%

## COc1cc(OC)c2c(=O)[nH]c(-c3cc(OC)c(OC)c(OC)c3)nc2c1
[1]
  inhibition: 10.9%
[2]
  inhibition: 38.7%
